Assay results as given in patent publication US10526341B2, “Thienopyrimidines and uses thereof” (Memorial Sloan-Kettering Cancer Center, priority 2014, dated 2020).
“Also recorded” adds a separate entry of the source.

Experiments:
[1] = system: DIPGVI xenografts; experiment: DIPGVI xenografts, bioluminescence imaging; type: in vivo, mice; settings: 60 mg/kg daily intraperitoneal, at 4 weeks
Procedure: (§1) DIPG and glioblastoma cell lines were used to generate xenografts in NSG immunocompromised mice for in vivo testing. All lines used for xenografting were transfected lentiviral vectors encoding firefly luciferase to enable bioluminescence imaging (BLI). For DIPG xenografts, 100,000 DIGIV or DIPGVI cells were stereotactically injected into the pons of cold anesthetized P6 pups by transcutaneous injection. For GBM xenografts, 500,000 cells (030613 and 040114) were injected stereotactically into the striatum of 6 week old mice anesthetized with ketamine/xylazine cocktail. […] BLI was performed every week during treatment.
(§2) BLI was performed using the IVIS Lumina II system. D-Luciferin (10 uL of 15 mg/mL solution was instilled by retro-orbital injection in mice under […] anesthesia and 5 minute exposures were collected. Fold change over baseline pre-randomization imaging was calculated.

[2] = system: normal neural precursors (NPC); experiment: MI-2-2 dose-response curve, cell survival (FIG. 19H); type: cell-based, human
Procedure: (§3) FIG. 19 depicts the chemical screen of the transformed NPCs. FIG. 19A is a schematic representation of the screening strategy. A mixture of GFP-labeled normal NPCs and RFP-labeled P5K cells in a 1:3 ratio were plated into 96-well plates and each compound in the library was added in a 2-fold serial dilution for a total of 8 doses. […] Error bars indicate S.D. (n=4). […] Intracranial growth of Luciferase-labeled P5K cells was measured by quantitative in vivo bioluminescence imaging. Values indicate fold change of luminescence before and after the treatment. […] Cells were treated with MI-2 for 7 days and the number of viable cells was counted by trypan-blue staining (n=4). Error bars in panels C-D, E, F and G indicate mean±S.D. *, p<0.05; **, p<0.01. NS, Not Significant. FIG. 19H represents a dose-response curve of MI-2-2.
(§4) The normal neural precursors are being analyzed for proof of maintained phenotype and differentiation ability, in further support of the safety profile of the drug used.

[3] = system: DIPG patient-derived tumor line; experiment: as above; type: cell-based, human
Procedure: as §3, §4

[4] = system: fibroblasts (MRCS); experiment: as above; type: cell-based, human
Procedure: as §3, §4

[5] = system: SU-DIPGVI; experiment: Ki67 immunofluorescence proliferation assay; type: cell-based, human; settings: pre-treatment 26.5, *p < 0.05
Procedure: (§5) Cell proliferation and apoptosis were assessed by immunofluorescence for Ki67 and TUNEL assays. After staining, Ki67 and TUNEL positive cells were manually counted to calculate a percentage of positive nuclei (see, e.g., FIG. 33). The pharmacokinetic profile of MI-2-2 was assessed by treating animals with 30 mg/kg and 60 mg/kg IP MI-2-2. Tail vein blood sampling and extraction of the pons was performed in animals at multiple time points and samples analyzed by LC-MS to generate a curve.

[6] = system: Glioblastoma 070909; experiment: Ki67 immunofluorescence proliferation assay; type: cell-based, human; settings: pre-treatment 18.2, *p < 0.05
Procedure: as §5

[7] = system: Glioblastoma 030613; experiment: Ki67 immunofluorescence proliferation assay; type: cell-based, human; settings: pre-treatment 30.4, *p < 0.05
Procedure: as §5

[8] = system: NPC; experiment: Ki67 immunofluorescence proliferation assay; type: cell-based, human; settings: pre-treatment 10.6
Procedure: as §5

[9] = system: SU-DIPGIV; experiment: Ki67 immunofluorescence proliferation assay; type: cell-based, human; settings: pre-treatment 34.9, *p < 0.05
Procedure: as §5

[10] = system: Glioblastoma 050715; experiment: Ki67 immunofluorescence proliferation assay; type: cell-based, human; settings: pre-treatment 11.9
Procedure: as §5

[11] = system: Astrocytes; experiment: Ki67 immunofluorescence proliferation assay; type: cell-based, human; settings: pre-treatment 2.4
Procedure: as §5

[12] = system: Glioblastoma 040114; experiment: Ki67 immunofluorescence proliferation assay; type: cell-based, human; settings: pre-treatment 56.0, *p < 0.05
Procedure: as §5

[13] = system: Fibroblasts; experiment: Ki67 immunofluorescence proliferation assay; type: cell-based, human; settings: pre-treatment 29.6
Procedure: as §5

[14] = system: Glioblastoma 040811; experiment: Ki67 immunofluorescence proliferation assay; type: cell-based, human; settings: pre-treatment 28.4
Procedure: as §5

[15] = Pharmacokinetic profile of MI-2-2, blood and pons by LC-MS; type: in vivo, mice; settings: 30 mg/kg systemic MI-2-2
Procedure: as §5
DIPIV xenografts were generated and are monitored monthly for BLI signal prior to randomization into treatment groups.

[16] = system: 042314; experiment: alamarBlue cell viability, 12 point dose response, seven days; type: cell-based, human; settings: 042314, seven days
[17] = system: 040114 xenografts; experiment: GBM 040114 xenografts, bioluminescence imaging; type: in vivo, mice; settings: 40 mg/kg BID, after three weeks
Procedure: as §1, §2

[18] = system: SU-DIPGVI; experiment: TUNEL apoptosis assay; type: cell-based, human; settings: pre-treatment 14.3
Procedure: as §5

[19] = system: NPC; experiment: TUNEL apoptosis assay; type: cell-based, human; settings: pre-treatment 3.8
Procedure: as §5

[20] = system: SU-DIPGIV; experiment: TUNEL apoptosis assay; type: cell-based, human; settings: pre-treatment 7.6
Procedure: as §5

[21] = system: Fibroblasts; experiment: TUNEL apoptosis assay; type: cell-based, human; settings: pre-treatment 0.4
Procedure: as §5

[22] = system: SU-DIPGVI; experiment: alamarBlue cell viability, 12 point dose response, seven days; type: cell-based, human
Procedure: (§6) Sensitivity to MI-2-2 was assessed by a 12 point dose response curve calculated after seven days of drug exposure and alamarBlue cell viability assay. Multiple patient tumor-derived DIPG (DIPGIV, DIPGVI, MSK-1, Peds8) and Glioblastoma (070909, 030613, 050715, 042315, 040811, 040114) were tested, with fibroblasts (MRCS), hES derived NPCs and astrocytes serving as controls (see FIGS. 29-33). Dose-response curves for the treatment of NPC, DIPGIV, and DIPGVI cell lines with MI-2-2, Panobinostat, and EPZ6438 are shown in FIG. 29.

[23] = system: Glioblastoma 070909; experiment: as above; type: cell-based, human; settings: 070909, seven days
Procedure: as §6

[24] = system: hES derived NPCs; experiment: as above; type: cell-based, human; settings: sub-micromolar doses
Procedure: as §6

[25] = system: Glioblastoma 030613; experiment: as above; type: cell-based, human; settings: 030613, seven days
Procedure: as §6

[26] = system: SU-DIPGIV; experiment: as above; type: cell-based, human
Procedure: as §6

[27] = system: Glioblastoma 050715; experiment: as above; type: cell-based, human; settings: 050715, seven days
Procedure: as §6

[28] = system: Astrocytes; experiment: as above; type: cell-based, human; settings: sub-micromolar doses
Procedure: as §6

[29] = system: Glioblastoma 040114; experiment: as above; type: cell-based, human; settings: 040114, seven days
Procedure: as §6

[30] = system: Glioblastoma 040811; experiment: as above; type: cell-based, human; settings: 040811, seven days
Procedure: as §6

[31] = system: fibroblasts (MRCS); experiment: as above; type: cell-based, human; settings: sub-micromolar doses
Procedure: as §6

Structure (SMILES): CC1(C)CN=C(N2CCN(c3ncnc4sc(CC(F)(F)F)cc34)CC2)S1 [MI-2-2]
- BLI signal in DIPGVI xenografts [1]: no significant difference in BLI signal
- survival of normal neural precursors (NPC) [2]: highly resistant; also recorded: minimal impact on the survival
- IC50 [3]: 10 nM
- survival of fibroblasts (MRCS) [4]: highly resistant; also recorded: minimal impact on the survival
- Ki67 % post-treatment [5]: 26.5, 14.4* %
- Ki67 % post-treatment [6]: 18.2, 10.8* %
- Ki67 % post-treatment [7]: 30.4, 16.2* %
- Ki67 % post-treatment [8]: 10.6, 12.1%
- Ki67 % post-treatment [9]: 34.9, 16.0* %
- Ki67 % post-treatment [10]: 11.9, 7.8%
- Ki67 % post-treatment [11]: 2.4, 4.3%
- Ki67 % post-treatment [12]: 56.0, 36.1* %
- Ki67 % post-treatment [13]: 29.6, 27.5%
- Ki67 % post-treatment [14]: 28.4, 22.5%
- In vivo blood-brain barrier (BBB) penetration [15]: penetration was demonstrated
- maintenance of therapeutic levels [15]: > 6 h
- IC50 [16]: 26.1 nM
- BLI signal fold change in 040114 xenografts [17]: significant reduction in signal fold change
- TUNEL % post-treatment [18]: 14.3, 17.9%
- TUNEL % post-treatment [19]: 3.8, 4.0%
- TUNEL % post-treatment [20]: 7.6, 21.4%
- TUNEL % post-treatment [21]: 0.4, 0.0%
- IC50 [22]: 121 nM
- IC50 [23]: 13.5 nM
- depletion of NPCs [24]: not depleted at sub-micromolar doses
- IC50 [25]: 9.51 nM
- IC50 [26]: 93.4 nM
- IC50 [27]: 83.4 nM
- depletion of astrocytes [28]: not depleted at sub-micromolar doses
- IC50 [29]: 36.4 nM
- IC50 [30]: 113 nM
- depletion of fibroblasts [31]: not depleted at sub-micromolar doses
